Source: ChEMBL document CHEMBL2046376, “Synthesis and antimicrobial activity of amide derivatives of polyether antibiotic-salinomycin” (2012)
≈ marks a conversion by molar mass, not a printed value. Calls of active or inactive are those of the source. No cut-off for these calls is given here.

What was measured:
Format in all cases: functional
[1] = tested on: Candida albicans; assay: Antifungal activity against Candida albicans ATCC 90028 after 24 hrs by twofold serial agar dilution technique
[2] = tested on: Bordetella bronchiseptica; assay: Antibacterial activity against Bordetella bronchiseptica ATCC 4617 after 18 hrs by twofold serial agar dilution technique
[3] = tested on: Proteus vulgaris; assay: Antibacterial activity against Proteus vulgaris NCTC 4635 after 18 hrs by twofold serial agar dilution technique
[4] = tested on: Staphylococcus aureus; assay: Antibacterial activity against hospital-acquired methicillin-sensitive Staphylococcus aureus 445/11 after 18 hrs by twofold serial agar dilution technique; settings: 445/11, 18 h
[5] = tested on: Staphylococcus aureus; assay: Antibacterial activity against hospital-acquired methicillin-resistant Staphylococcus aureus 452/11 after 18 hrs by twofold serial agar dilution technique; settings: 452/11, 18 h
[6] = tested on: Staphylococcus aureus; assay: Antibacterial activity against hospital-acquired methicillin-sensitive Staphylococcus aureus 440/11 after 18 hrs by twofold serial agar dilution technique; settings: 440/11, 18 h
[7] = tested on: Staphylococcus aureus; assay: Antibacterial activity against hospital-acquired methicillin-sensitive Staphylococcus aureus 443/11 after 18 hrs by twofold serial agar dilution technique; settings: 443/11, 18 h
[8] = tested on: Staphylococcus aureus; assay: Antibacterial activity against hospital-acquired methicillin-sensitive Staphylococcus aureus 447/11 after 18 hrs by twofold serial agar dilution technique; settings: 447/11, 18 h
[9] = tested on: Staphylococcus epidermidis; assay: Antibacterial activity against Staphylococcus epidermidis ATCC 35984 after 18 hrs by twofold serial agar dilution technique; settings: ATCC 35984, 18 h
[10] = tested on: Staphylococcus aureus; assay: Antibacterial activity against methicillin-resistant Staphylococcus aureus clinical isolate
[11] = tested on: Staphylococcus aureus; assay: Antibacterial activity against hospital-acquired methicillin-resistant Staphylococcus aureus 451/11 after 18 hrs by twofold serial agar dilution technique; settings: 451/11, 18 h
[12] = tested on: Staphylococcus aureus; assay: Antibacterial activity against Staphylococcus aureus ATCC 6538 after 18 hrs by twofold serial agar dilution technique; settings: ATCC 6538, 18 h
[13] = tested on: Staphylococcus epidermidis; assay: Antibacterial activity against Staphylococcus epidermidis ATCC 12228 assessed as zone of inhibition at 400 ug/disc after 18 hrs by disc diffusion method; settings: ATCC 12228, 18 h, read-out: DIZ
[14] = tested on: Staphylococcus aureus; assay: Antibacterial activity against hospital-acquired methicillin-resistant Staphylococcus aureus 399/10 after 18 hrs by twofold serial agar dilution technique; settings: 399/10, 18 h
[15] = tested on: Staphylococcus epidermidis; assay: Antibacterial activity against Staphylococcus epidermidis ATCC 35984 assessed as zone of inhibition at 400 ug/disc after 18 hrs by disc diffusion method; settings: ATCC 35984, 18 h, read-out: DIZ
[16] = tested on: Escherichia coli; assay: Antibacterial activity against Escherichia coli ATCC 10538 after 18 hrs by twofold serial agar dilution technique
[17] = tested on: Staphylococcus aureus; assay: Antibacterial activity against Staphylococcus aureus ATCC 29213 assessed as zone of inhibition at 400 ug/disc after 18 hrs by disc diffusion method; settings: ATCC 29213, 18 h, read-out: DIZ
[18] = tested on: Escherichia coli; assay: Antibacterial activity against Escherichia coli NCTC 8196 after 18 hrs by twofold serial agar dilution technique
[19] = tested on: Staphylococcus aureus; assay: Antibacterial activity against hospital-acquired methicillin-sensitive Staphylococcus aureus 449/11 after 18 hrs by twofold serial agar dilution technique; settings: 449/11, 18 h
[20] = tested on: Staphylococcus aureus; assay: Antibacterial activity against hospital-acquired methicillin-resistant Staphylococcus aureus 482/11 after 18 hrs by twofold serial agar dilution technique; settings: 482/11, 18 h
[21] = tested on: Staphylococcus aureus; assay: Antibacterial activity against Staphylococcus aureus ATCC 6538 assessed as zone of inhibition at 400 ug/disc after 18 hrs by disc diffusion method; settings: ATCC 6538, 18 h, read-out: DIZ
[22] = tested on: Staphylococcus aureus; assay: Antibacterial activity against hospital-acquired methicillin-resistant Staphylococcus aureus 400/10 after 18 hrs by twofold serial agar dilution technique; settings: 400/10, 18 h
[23] = tested on: Pseudomonas aeruginosa; assay: Antibacterial activity against Pseudomonas aeruginosa ATCC 15442 after 18 hrs by twofold serial agar dilution technique
[24] = tested on: Staphylococcus aureus; assay: Antibacterial activity against hospital-acquired methicillin-resistant Staphylococcus aureus 394/10 after 18 hrs by twofold serial agar dilution technique; settings: 394/10, 18 h
[25] = tested on: Candida albicans; assay: Antifungal activity against Candida albicans ATCC 10231 after 24 hrs by twofold serial agar dilution technique
[26] = tested on: Pseudomonas aeruginosa; assay: Antibacterial activity against Pseudomonas aeruginosa ATCC 27853 after 18 hrs by twofold serial agar dilution technique
[27] = tested on: Staphylococcus aureus; assay: Antibacterial activity against hospital-acquired methicillin-sensitive Staphylococcus aureus 446/11 after 18 hrs by twofold serial agar dilution technique; settings: 446/11, 18 h
[28] = tested on: Staphylococcus aureus; assay: Antibacterial activity against hospital-acquired methicillin-resistant Staphylococcus aureus 393/10 after 18 hrs by twofold serial agar dilution technique; settings: 393/10, 18 h
[29] = tested on: Pseudomonas aeruginosa; assay: Antibacterial activity against Pseudomonas aeruginosa NCTC 6749 after 18 hrs by twofold serial agar dilution technique
[30] = tested on: Staphylococcus aureus; assay: Antibacterial activity against hospital-acquired methicillin-sensitive Staphylococcus aureus 441/11 after 18 hrs by twofold serial agar dilution technique; settings: 441/11, 18 h
[31] = tested on: Escherichia coli; assay: Antibacterial activity against Escherichia coli ATCC 25922 after 18 hrs by twofold serial agar dilution technique
[32] = tested on: Staphylococcus aureus; assay: Antibacterial activity against hospital-acquired methicillin-resistant Staphylococcus aureus 401/10 after 18 hrs by twofold serial agar dilution technique; settings: 401/10, 18 h
[33] = tested on: Staphylococcus aureus; assay: Antibacterial activity against Staphylococcus aureus ATCC 25923 assessed as zone of inhibition at 400 ug/disc after 18 hrs by disc diffusion method; settings: ATCC 25923, 18 h, read-out: DIZ
[34] = tested on: Staphylococcus epidermidis; assay: Antibacterial activity against Staphylococcus epidermidis ATCC 12228 after 18 hrs by twofold serial agar dilution technique; settings: ATCC 12228, 18 h
[35] = tested on: Staphylococcus aureus; assay: Antibacterial activity against hospital-acquired methicillin-sensitive Staphylococcus aureus 444/11 after 18 hrs by twofold serial agar dilution technique; settings: 444/11, 18 h
[36] = tested on: Staphylococcus aureus; assay: Antibacterial activity against hospital-acquired methicillin-resistant Staphylococcus aureus 481/11 after 18 hrs by twofold serial agar dilution technique; settings: 481/11, 18 h
[37] = tested on: Staphylococcus aureus; assay: Antibacterial activity against hospital-acquired methicillin-resistant Staphylococcus aureus 450/11 after 18 hrs by twofold serial agar dilution technique; settings: 450/11, 18 h
[38] = tested on: Staphylococcus aureus; assay: Antibacterial activity against Staphylococcus aureus ATCC 25923 after 18 hrs by twofold serial agar dilution technique; settings: ATCC 25923, 18 h
[39] = tested on: Candida parapsilosis; assay: Antifungal activity against Candida parapsilosis ATCC 22019 after 24 hrs by twofold serial agar dilution technique
[40] = tested on: Staphylococcus aureus; assay: Antibacterial activity against Staphylococcus aureus NCTC 4163 after 18 hrs by twofold serial agar dilution technique; settings: NCTC 4163, 18 h
[41] = tested on: Staphylococcus aureus; assay: Antibacterial activity against hospital-acquired methicillin-sensitive Staphylococcus aureus 448/11 after 18 hrs by twofold serial agar dilution technique; settings: 448/11, 18 h
[42] = tested on: Staphylococcus aureus; assay: Antibacterial activity against Staphylococcus aureus ATCC 29213 after 18 hrs by twofold serial agar dilution technique; settings: ATCC 29213, 18 h
[43] = tested on: Staphylococcus aureus; assay: Antibacterial activity against hospital-acquired methicillin-sensitive Staphylococcus aureus 442/11 after 18 hrs by twofold serial agar dilution technique; settings: 442/11, 18 h
[44] = tested on: Staphylococcus aureus; assay: Antibacterial activity against Staphylococcus aureus NCTC 4163 assessed as zone of inhibition at 400 ug/disc after 18 hrs by disc diffusion method; settings: NCTC 4163, 18 h, read-out: DIZ

SMILES: CC[C@@H](C(=O)[C@@H](C)[C@@H](O)[C@H](C)[C@@H]1O[C@@H]([C@@H](CC)C(=O)O)CC[C@@H]1C)[C@H]1O[C@]2(C=C[C@@H](O)[C@]3(CC[C@@](C)([C@H]4CC[C@](O)(CC)[C@H](C)O4)O3)O2)[C@H](C)C[C@@H]1C [SALINOMYCIN]
- Activity [1]: inactive
- Activity [2]: inactive
- Activity [3]: inactive
- MIC [4]: 1 mg/L (≈ 1.33 µM)
- MIC [5]: 1 mg/L (≈ 1.33 µM)
- MIC [6]: 1 mg/L (≈ 1.33 µM)
- MIC [7]: 2 mg/L (≈ 2.66 µM)
- MIC [8]: 2 mg/L (≈ 2.66 µM)
- MIC [9]: 2 mg/L (≈ 2.66 µM)
- MIC [10]: 1 mg/L (≈ 1.33 µM)
- MIC [11]: 2 mg/L (≈ 2.66 µM)
- MIC [12]: 2 mg/L (≈ 2.66 µM)
- zone of inhibition at 400 µg/disc [13]: 28 mm
- MIC [14]: 1 mg/L (≈ 1.33 µM)
- zone of inhibition at 400 µg/disc [15]: 30 mm
- Activity [16]: inactive
- zone of inhibition at 400 µg/disc [17]: 29 mm
- Activity [18]: inactive
- MIC [19]: 1 mg/L (≈ 1.33 µM)
- MIC [20]: 2 mg/L (≈ 2.66 µM)
- zone of inhibition at 400 µg/disc [21]: 30 mm
- MIC [22]: 1 mg/L (≈ 1.33 µM)
- Activity [23]: inactive
- MIC [24]: 2 mg/L (≈ 2.66 µM)
- Activity [25]: inactive
- Activity [26]: inactive
- MIC [27]: 1 mg/L (≈ 1.33 µM)
- MIC [28]: 2 mg/L (≈ 2.66 µM)
- Activity [29]: inactive
- MIC [30]: 2 mg/L (≈ 2.66 µM)
- Activity [31]: inactive
- MIC [32]: 1 mg/L (≈ 1.33 µM)
- zone of inhibition at 400 µg/disc [33]: 31 mm
- MIC [34]: 2 mg/L (≈ 2.66 µM)
- MIC [35]: 2 mg/L (≈ 2.66 µM)
- MIC [36]: 1 mg/L (≈ 1.33 µM)
- MIC [37]: 2 mg/L (≈ 2.66 µM)
- MIC [38]: 2 mg/L (≈ 2.66 µM)
- Activity [39]: inactive
- MIC [40]: 2 mg/L (≈ 2.66 µM)
- MIC [41]: 2 mg/L (≈ 2.66 µM)
- MIC [42]: 2 mg/L (≈ 2.66 µM)
- MIC [43]: 2 mg/L (≈ 2.66 µM)
- zone of inhibition at 400 µg/disc [44]: 33 mm
